According to patent US6350596B2, “Method for producing L-phenylalanine” (Ajinomoto Co., Inc., priority 2000, dated 2002):

Columns and labels:
[1] = tested on: Methylophilus methylotrophus pFp^R phe^R mutant strain No. 227-16; format: cell-based
Excerpt: The new mutants which were resistant to 1 g/L of meta-fluorophenylalanine (hereinafter abbreviated to mFp^R) were isolated from the strain No. 227-16 after NG-mutagenesis as it was described above.

[2] = tested on: Methylophilus methylotrophus AS-1 (NCIB 10515; ATCC 53528); experiment: Sensitivity of the wild type strain to phenylalanine analogs on 121(Fe2)-agar medium; format: cell-based; settings: for amount at which the wild type strain (strain AS-1) can not grow: usually, under the conditions described in Examples
Excerpt: To be resistant to an phenylalanine analog means that the bacterium can grow in the presence of the phenylalanine analog in the amount at which the wild type strain (for example, strain AS-1) can not grow. The amount varies depending on the kinds of the phenylalanine analog.
To be resistant to L-phenylalanine means that the bacterium can grow in the presence of L-phenylalanine in the amount at which the wild type strain (for example, strain AS-1) can not grow. The amount is usually 8 g/l under the conditions described in Examples mentioned below.
To be resistant to cinnamic acid means that the bacterium can grow in the presence of cinnamic acid in the amount at which the wild type strain (for example, strain AS-1) can not grow. The amount is usually 50 mg/l under the conditions described in Examples mentioned below.
The 10^8 c.f.u./ml of M. methylotrophus bacteria were plated and grown at +30° C. for 3 days. […] The several crystals of N-methyl-N′-nitro-N-nitrosoguanidin (hereinafter abbreviated to NG) mutagen was placed in the middle of the plate. After 4-5 days at 30° C., the plates were analyzed.

[3] = tested on: M. methylotrophus pFp^R mutant No. 227; experiment: Growth of pFp^R mutant on agarized 121-medium with L-phenylalanine; format: cell-based, Methylophilus methylotrophus; settings: added into the agarized 121-medium

Compound	concentration to which the strain was resistant ([1]; strain No. 227-16)	amount at which the wild type strain (strain AS-1) can not grow [2]	concentration that totally inhibited the growth [3]	concentration that totally inhibited the growth of the bacteria lawn ([2]; 121(Fe2)-agar medium, 10^8 c.f.u./ml plated, +30° C., 3 days)	growth of the strain in the presence of the analog ([1]; strain No. 227-16, 1 g/l of the analog)
N[C@@H](Cc1ccccc1)C(=O)O [L-phenylalanine]	0.05 M	8 g/L	0.1 M	–	–
NC(Cc1ccc(F)cc1)C(=O)O (racemic) [DL-p-fluorophenylalanine]	–	2 g/L	–	1 mg/mL	–
N[C@@H](Cc1cccc(F)c1)C(=O)O [m-fluorophenylalanine]	–	1 g/L	–	–	only a slight growth
O=C(O)C=Cc1ccccc1 [cinnamic acid]	–	0.05 g/L	–	–	–
